“Also recorded” adds a separate entry of the source. Values belong to the compound of their own block, whether it stands above or below them.
Key:
[1] = tested on: Infiltration of Polymorphonuclear Leukocytes into Sites of Carrageenan-Induced Inflammation; assay: Mouse carrageenan peritonitis (PMN infiltration); assay type: in vivo, mouse (male Balb/c); settings: for PMN infiltration, result in words: carrageenan peritonitis, mice
[2] = tested on: Arachidonic Acid-Induced Inflammation of the Mouse Ear; assay: Arachidonic acid-induced mouse ear inflammation; assay type: in vivo, mouse (male Balb/c); settings: for Mouse ear edema, result in words: in vivo
Excerpt: (§1) In the following Examples where mice were used, they were male Balb/c mice (20-28 g), and where rats were used, they were male Lewis rats (180-210 g). All mice and rats were obtained from Charles River Breeding Laboratories, Kingston, N.Y. Within a single experiment, mice and rats were sex and age matched.
(§2) The compounds of Formula (I) were used either as the free base or in the appropriate salt form. Levamisole was used as the hydrochloride salt. The compounds were homogenized in 0.5% tragacanth. Compounds were administered by gavage at the indicated dose in a final volume of 10 ml/kg. Nordihydroguaiaretic acid (NDGA) was solubilized in dimethylacetamide and diluted with olive oil for subcutaneous administration.
Arachidonic acid in acetone ([…]) was applied to the inner surface of the left ear. The thickness of both ears was then measured with a dial micrometer one hour after treatment, and the data were expressed as the change in thickness (10^-3 cm) between treated and untreated ears.
Test compounds were given orally in 0.5% tragacanth at the times indicated in the text prior to the topical application of arachidonic acid.
Parenteral administration of compound was accomplished by subcutaneous injection of solution as indicated.

[3] = tested on: Arachidonic Acid-Induced Rat Paw Edema; assay: Arachidonic acid-induced rat paw swelling; assay type: in vivo, rat (male Lewis)
Excerpt: as §1
Auranofin, phenidone, indomethacin, naproxen, and ibuprofen were each used as the free base. The compounds of Formula (I) were used either as the free base or in the appropriate salt form. Levamisole was used as the hydrochloride salt. The compounds were homogenized in 0.5% tragacanth. Compounds were administered by gavage at the indicated dose in a final volume of 10 ml/kg. Nordihydroguaiaretic acid (NDGA) was solubilized in dimethylacetamide and diluted with olive oil for subcutaneous administration.
After determining pretreatment paw volumes by plethysmography by the method of Webb and Griswold, J. Pharmacol. Methods, 12, 149-153 (1984), rats were given test compound or vehicle one hour prior to the subplantar injection of 0.1 ml of 1 mg/ml arachidonic acid. Paw volumes were then remeasured and compared to pretreatment values and the increase in paw volume was expressed as mean values ± S.D.

[4] = tested on: Carrageenan-Induced Cellular Infiltration into the Rat Air Pouch; assay: Carrageenan-induced air pouch inflammation; assay type: in vivo, rat (male Lewis); settings: for Cell infiltration into carrageenan air pouch, result in words: rat, in vivo
Excerpt: as §1, §2
(§3) Rats were shaved on the dorsal flank, and then injected subcutaneously one day later with 20 ml of air to form a defined pouch, by the method of Sedgwick et al., J. Pathology, 141, 483-495 (1983). The air pouch was reinflated as necessary over the next 6 days. To assay anti-inflammatory activity, animals were treated orally with test compound or vehicle (10 ml/kg) one hour before injection of 2.0 ml of a 2.0% carrageenan suspension containing […] penicillin and 100 µg/ml streptomycin into the air pouch. In other experiments, 5 ml of 0.1% arachidonic acid in 0.2M bicarbonate buffer was injected two hours after drug treatment. Animals were sacrificed using CO2 three hours after instillation of irritant. The exudate was then aspirated from the pouch and neutrophil count and differential cell count were measured.

[5] = tested on: Arachidonic Acid-Induced Cellular Infiltration into the Rat Air Pouch; assay: Arachidonic acid-induced air pouch inflammation; assay type: in vivo, rat (male Lewis); settings: for Cell infiltration into arachidonic acid air pouch, result in words: rat, in vivo
Excerpt: as §1, §2, §3

[6] = tested on: 5-lipoxygenase and LTA4 synthetase; assay: Di-HETE / LTB4 production by high speed supernatant of RBL-1 cells; assay type: biochemical
Protocol: For in vitro experiments, compounds were dissolved at appropriate concentrations in ethanol or DMSO (dimethylsulfoxide) (final concentration≤1.0%) and then diluted to final concentrations using the buffers indicated in the text.
The activities of these enzymes in extracts of RBL-1 cells were assayed using the method of Jakschik and Lee, Nature, 287, 51-52 (1980). RBL-1 cells were obtained from the American Type Culture Collection (#CRL 1378) and were grown at 37° C. (5% CO2 in air) in spinner culture in MEM supplemented with 10% heat inactivated fetal calf serum. Harvested cells were washed with 50 mM sodium phosphate buffer, pH 7.0, containing 1 mM EDTA and 0.1% gelatin, resuspended in fresh buffer (5×10^7 cells/ml) and disrupted by nitrogen cavitation using the Parr bomb at 750 psi for 10 min. The broken cell extract was then centrifuged at 10,000× g for 20 minutes (min) and the supernatant centrifuged at 100,000 xIg for 60 min. Aliquots (0.25 mls) of the supernatant were preincubated with or without drugs for 10 min, after which 10 μl CaCl2 (50 mM) was added and the reaction was initiated with 2.5 μl of 2.5 mM arachidonic acid-1-^14 C (final concentration was 25 μM; specific activity 20,000 dpm/nmole). After incubation for 3 min at 37° C., the reaction was terminated by addition of 2 volumes (0.5 ml) ice cold acetone and the sample was allowed to deproteinize on ice for 10 min prior to centrifugation at 1,000× g for 10 min. The deproteinized supernatant was adjusted to pH 3.5 with 2N formic acid and extracted with 2 volumes of ice cold ethyl acetate. The extracted samples were dried under argon, redissolved in ethyl acetate and applied to Whatman LK5D thin layer chromatography (TLC) plates which were developed using the A-9 solvent system [organic phase of ethyl acetate: 2,2,5-trimethylpentane:acetic acid: water (110:50:20:10)] described by Hamberg and Samuelsson, J. Biol. Chem., 241, 257-263 (1966). Arachidonic acid, 5-HETE, LTB4 and PGD2 were quantified with a Berthold LB 2832 autoscanner.
The 5-lipoxygenase and LTA4 synthetase activities were further studied under the following conditions. An additional centrifugation of the RBL-1 supernatant was run at 100,000× g for 60 min, to remove the particulate cyclooxygenase activity. Sample incubation was done under conditions similar to those described above, i.e., 2 mM CaCl2 and […] arachidonic acid-1-^14 C, however, with an incubation time of 5 min at 5° C. Under these conditions, only the 5-lipoxygenase pathway metabolites were detectable. The 5-HETE and di-HETEs were formed at a linear rate, and substantial amounts of the arachidonic acid-1-^14 C substrate were utilized.

[7] = 5 mg/kg, 2 hours post arachidonic acid

IC50 ([6]; soluble extract of RBL-1 cells containing only lipoxygenase activity, read-out: IC50, eicosanoid formation (LTB4 production)): 7.5 µM
SMILES: Fc1ccc(-c2nc3n(c2-c2ccncc2)CCS3)cc1 [Compound 1]
PMN infiltration, result in words [1]: reduced dramatically | Increase in Ear Thickness at 1 Hour ([2]; 50 mg/kg, p.o.): 10.0 ± 1.5 × 10-3 cm | Mouse ear edema, result in words [2]: marked inhibition of the edematous response | Change in Paw Volume ([3]; 100 mg/kg, 2 hours post arachidonic acid): 0.06 ± 0.05 mL | Rat paw inflammatory response, result in words ([3]; rat, in vivo): inhibited significantly | Cellular Infiltrate MN ([4]; 100 mg/kg): 5.5 ± 3.8 Total × 10^-6 | Cellular Infiltrate PMN ([4]; 100 mg/kg): 2.6 ± 1.3 Total × 10^-6 | Exudate Volume ([4]; 100 mg/kg): 1.0 ± 0.9 mL | Cell infiltration into carrageenan air pouch, result in words [4]: significant inhibition of polymorphonuclear leukocyte infiltration | Cellular Infiltrate MN ([5]; 100 mg/kg): 1.5 ± 1.1 Total × 10^-6 | Cellular Infiltrate PMN ([5]; 100 mg/kg): 1.2 ± 0.7 Total × 10^-6 | Exudate Volume ([5]; 100 mg/kg): 2.6 ± 0.8 mL | Cell infiltration into arachidonic acid air pouch, result in words [5]: significantly reduced PMN and mononuclear cell infiltration | Di-HETE ([6]; 1 μM): 1.56 ± 0.06 nM/ml | Di-HETE ([6]; 3.3 μM): 1.34 ± 0.12 nM/ml | Di-HETE ([6]; 10 μM): 0.88 ± 0.21 nM/ml | Di-HETE ([6]; 33 μM): 0.40 ± 0.08 nM/ml | Di-HETE ([6]; 100 μM): 0.03 ± 0.04 nM/ml

SMILES: COc1ccc2c(c1)c(CC(=O)O)c(C)n2C(=O)c1ccc(Cl)cc1 [Indomethacin]
% Change (PMN) ([1]; 10 mg/kg, p.o., Table 3): -12% | PMN (Mean ± S.D.) ([1]; 10 mg/kg, p.o., Table 3): 8.20 ± 2.65 × 10^-5 /ml | PMN infiltration, result in words [1]: did not impair inflammatory cell infiltration | % Change (ear thickness) ([2]; 10 mg/kg, p.o.): -5% | Increase in Ear Thickness at 1 Hour ([2]; 10 mg/kg, p.o.): 24.4 ± 0.8 × 10-3 cm | Mouse ear edema, result in words [2]: did not exhibit detectable anti-inflammatory activity | % Inhibition (paw volume) [3, 7]: 0% | Change in Paw Volume [3, 7]: 0.29 ± 0.06 mL | Cellular Infiltrate MN ([4]; 5 mg/kg): 4.0 ± 0.8 Total × 10^-6 | Cellular Infiltrate PMN ([4]; 5 mg/kg): 2.8 ± 0.7 Total × 10^-6 | Exudate Volume ([4]; 5 mg/kg): 2.0 ± 0.5 mL | Cell infiltration into carrageenan air pouch, result in words [4]: reduction in the PMN count and the PMN:mononuclear cell ratio | Cellular Infiltrate MN ([5]; 5 mg/kg): 7.0 ± 6.4 Total × 10^-6 | Cellular Infiltrate PMN ([5]; 5 mg/kg): 5.0 ± 3.8 Total × 10^-6 | Exudate Volume ([5]; 5 mg/kg): 2.5 ± 0.8 mL | Cell infiltration into arachidonic acid air pouch, result in words [5]: did not reduce inflammation or cell infiltration; also recorded: no significant effect on cell infiltration | Inhibition of eicosanoid formation / LTB4, result in words ([6]; indomethacin: concentrations up to 10^-4 M): inactive
